Assay results: US20250049970A1, “DLL3 TARGETING PEPTIDES AND CONSTRUCTS THEREOF” (MARIANA ONCOLOGY INC., priority 2023, published 2025)
*1 amine or outer side, *2 acyl side, *3 side chain or, on linkers, in order; H or OH if unused. Where a SMILES comes first, the peptide text is derived from it. Bridges are numbered along the chain shown (N, C = ends). [ ]: non-standard residue; d: D form. Phe(4-CF3) = N[C@@H](Cc1ccc(C(F)(F)F)cc1)C(=O)O; Trp(5-OH) = N[C@@H](Cc1c[nH]c2ccc(O)cc12)C(=O)O; Trp(7-aza) = N[C@@H](Cc1c[nH]c2ncccc12)C(=O)O; Trp(1-Me) = Cn1cc(C[C@H](N)C(=O)O)c2ccccc21; Phe(4-F) = N[C@@H](Cc1ccc(F)cc1)C(=O)O; 2Nal = N[C@@H](Cc1ccc2ccccc2c1)C(=O)O; Chg = N[C@H](C(=O)O)C1CCCCC1; CH2 = C([*:1])[*:2]

Target: T1, DLL3 (Homo sapiens, UniProt Q9NYJ7)
T1 sequence (Q9NYJ7 27-618): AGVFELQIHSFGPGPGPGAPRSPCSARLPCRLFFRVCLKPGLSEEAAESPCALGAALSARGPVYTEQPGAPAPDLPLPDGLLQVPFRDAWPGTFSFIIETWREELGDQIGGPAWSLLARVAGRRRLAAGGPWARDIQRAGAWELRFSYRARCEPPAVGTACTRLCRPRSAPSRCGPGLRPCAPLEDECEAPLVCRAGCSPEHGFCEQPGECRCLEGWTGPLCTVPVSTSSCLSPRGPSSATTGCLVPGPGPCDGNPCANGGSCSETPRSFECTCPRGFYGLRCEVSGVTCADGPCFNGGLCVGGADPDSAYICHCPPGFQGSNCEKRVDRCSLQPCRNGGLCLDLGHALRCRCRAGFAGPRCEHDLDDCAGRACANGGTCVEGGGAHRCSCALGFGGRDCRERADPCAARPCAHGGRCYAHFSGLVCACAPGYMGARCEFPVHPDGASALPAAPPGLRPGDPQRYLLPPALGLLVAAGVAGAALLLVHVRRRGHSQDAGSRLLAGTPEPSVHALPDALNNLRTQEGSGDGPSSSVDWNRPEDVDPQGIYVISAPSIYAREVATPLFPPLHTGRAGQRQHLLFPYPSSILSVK
Experiment: SPR KD, biotinylated human DLL3 on streptavidin chip (Table 8)
Parameters: biotin (biotinylated)
Conditions: biotinylated human DLL3 on streptavidin sensor chip, 25° C., 1:1 binding model; read-out: SPR KD
Description: Biotinylated target ligand human DLL3 was immobilized on a streptavidin sensor chip. A reference surface was set up for nonspecific binding and refractive index changes. […] Sensorgram curves were fitted with 1:1 binding model, and affinity and kinetic parameters were obtained using Biacore Insight evaluation 4.0. software.

SMILES	Kd [nM]
CC[C@H](C)[C@H](NC(=O)[C@@H](NC(=O)[C@H](Cc1ccc2ccccc2c1)NC(C)=O)[C@@H](C)O)C(=O)N[C@H]1CSSC[C@@H](C(=O)N[C@@H](Cc2c[nH]c3ccccc23)C(=O)N2CCC[C@H]2C(N)=O)NC(=O)[C@H](CC(=O)O)NC(=O)[C@H](Cc2cnc[nH]2)NC(=O)[C@H](Cc2c[nH]c3ccccc23)NC(=O)[C@H](CC(N)=O)NC(=O)[C@H](CC(N)=O)NC1=O [compound 26, Ac-(2Nal)-T-I-C(3)-N-N-W-H-D-C(3)-W-P-CONH2] (Ac-[2Nal]TICNNWHDCWP-NH2; disulfide 4-10)	10 to 100
CC[C@H](C)[C@H](NC(=O)[C@@H](NC(=O)[C@H](Cc1c[nH]c2ccc(O)cc12)NC(C)=O)[C@@H](C)O)C(=O)N[C@H]1CSSC[C@@H](C(=O)N[C@@H](Cc2c[nH]c3ccccc23)C(=O)N2CCC[C@H]2C(N)=O)NC(=O)[C@H](CC(=O)O)NC(=O)[C@H](Cc2c[nH]cn2)NC(=O)[C@H](Cc2c[nH]c3ccccc23)NC(=O)[C@H](CC(N)=O)NC(=O)[C@H](CC(N)=O)NC1=O [compound 27, Ac-(5OH-W)-T-I-C(3)-N-N-W-H-D-C(3)-W-P-CONH2] (Ac-[Trp(5-OH)]TICNNWHDCWP-NH2; disulfide 4-10)	10 to 100
CC[C@H](C)[C@H](NC(=O)[C@@H](NC(=O)[C@H](Cc1c[nH]c2ccccc12)NC(=O)[C@H](CCSC)NC(C)=O)[C@@H](C)O)C(=O)N[C@H]1CSCSC[C@@H](C(=O)N[C@@H](Cc2c[nH]c3ccccc23)C(=O)N2CCC[C@H]2C(N)=O)NC(=O)[C@H](CC(=O)O)NC(=O)[C@H](Cc2cnc[nH]2)NC(=O)[C@H](Cc2c[nH]c3ccccc23)NC(=O)[C@H](CC(N)=O)NC(=O)[C@H](CC(N)=O)NC1=O [compound 32, Ac-M-W-T-I-C(1)-N-N-W-H-D-C(1)-W-P-CONH2] (Ac-MWTICNNWHDCWP-NH2; linker 5-11 via CH2)	10 to 100
CC[C@H](C)[C@H](NC(=O)[C@@H](NC(=O)[C@H](Cc1c[nH]c2ccccc12)NC(C)=O)[C@@H](C)O)C(=O)N[C@H]1CSSC[C@@H](C(=O)N[C@@H](Cc2c[nH]c3ccccc23)C(=O)N2CCC[C@H]2C(N)=O)NC(=O)[C@H](CC(=O)O)NC(=O)[C@H](Cc2c[nH]cn2)NC(=O)[C@H](Cc2c[nH]c3ncccc23)NC(=O)[C@H](CC(N)=O)NC(=O)[C@H](CC(N)=O)NC1=O [compound 33, Ac-W-T-I-C(3)-N-N-(7Aza-W)-H-D-C(3)-W-P-CONH2] (Ac-WTICNN[Trp(7-aza)]HDCWP-NH2; disulfide 4-10)	10 to 100
CC[C@H](C)[C@H](NC(=O)[C@@H](NC(=O)[C@H](Cc1c[nH]c2ccccc12)NC(=O)[C@H](CCSC)NC(C)=O)[C@@H](C)O)C(=O)N[C@H]1CSSC[C@@H](C(=O)N[C@@H](Cc2c[nH]c3ccccc23)C(=O)N2CCC[C@H]2C(N)=O)NC(=O)[C@H](CC(=O)O)NC(=O)[C@H](C)NC(=O)[C@H](Cc2c[nH]c3ccccc23)NC(=O)[C@H](CC(N)=O)NC(=O)[C@H](CC(N)=O)NC1=O [compound 36, Ac-M-W-T-I-C(3)-N-N-W-(L-Ala)-D-C(3)-W-P-CONH2] (Ac-MWTICNNWADCWP-NH2; disulfide 5-11)	10 to 100
CC[C@H](C)[C@H](NC(=O)[C@@H](NC(=O)[C@H](Cc1c[nH]c2ccccc12)NC(=O)[C@H](CCSC)NC(C)=O)[C@@H](C)O)C(=O)N[C@H]1CSSC[C@@H](C(=O)N[C@@H](Cc2c[nH]c3ccccc23)C(=O)N2CCC[C@H]2C(N)=O)NC(=O)[C@H](C)NC(=O)[C@H](Cc2cnc[nH]2)NC(=O)[C@H](Cc2c[nH]c3ccccc23)NC(=O)[C@H](CC(N)=O)NC(=O)[C@H](CC(N)=O)NC1=O [compound 37, Ac-M-W-T-I-C(3)-N-N-W-H-(L-Ala)-C(3)-W-P-CONH2] (Ac-MWTICNNWHACWP-NH2; disulfide 5-11)	10 to 100
CC[C@H](C)[C@H](NC(=O)[C@@H](NC(=O)[C@H](Cc1c[nH]c2ccccc12)NC(=O)[C@H](CCSC)NC(C)=O)[C@@H](C)O)C(=O)N[C@H]1CSSC[C@@H](C(=O)N[C@@H](Cc2c[nH]c3ccccc23)C(=O)N2CCC[C@H]2C(N)=O)NC(=O)[C@H](CC(=O)O)NC(=O)[C@H](Cc2cnc[nH]2)NC(=O)[C@H](Cc2c[nH]c3ccccc23)NC(=O)[C@H](C)NC(=O)[C@H](CC(N)=O)NC1=O [compound 38, Ac-M-W-T-I-C(3)-N-(L-Ala)-W-H-D-C(3)-W-P-CONH2] (Ac-MWTICNAWHDCWP-NH2; disulfide 5-11)	10 to 100
CC[C@H](C)[C@H](NC(=O)[C@@H](NC(=O)[C@H](Cc1c[nH]c2ccccc12)NC(=O)[C@H](CCSC)NC(C)=O)[C@@H](C)O)C(=O)N[C@H]1CSSC[C@@H](C(=O)N[C@@H](Cc2c[nH]c3ccccc23)C(=O)N2CCC[C@H]2C(N)=O)NC(=O)[C@H](CC(=O)O)NC(=O)[C@H](Cc2cnc[nH]2)NC(=O)[C@H](Cc2c[nH]c3ccccc23)NC(=O)[C@@H](C)NC(=O)[C@H](CC(N)=O)NC1=O [compound 39, Ac-M-W-T-I-C(3)-N-(D-Ala)-W-H-D-C(3)-W-P-CONH2] (Ac-MWTICN[dA]WHDCWP-NH2; disulfide 5-11)	10 to 100
CC[C@H](C)[C@H](NC(=O)[C@@H](NC(=O)[C@H](Cc1cn(C)c2ccccc12)NC(=O)[C@H](CCSC)NC(C)=O)[C@@H](C)O)C(=O)N[C@H]1CSSC[C@@H](C(=O)N[C@@H](Cc2c[nH]c3ccccc23)C(=O)N2CCC[C@H]2C(N)=O)NC(=O)[C@H](CC(=O)O)NC(=O)[C@H](Cc2cnc[nH]2)NC(=O)[C@H](Cc2c[nH]c3ccccc23)NC(=O)[C@H](CC(N)=O)NC(=O)[C@H](CC(N)=O)NC1=O [compound 41, Ac-M-(1Me-W)-T-I-C(3)-N-N-W-H-D-C(3)-W-P-CONH2] (Ac-M[Trp(1-Me)]TICNNWHDCWP-NH2; disulfide 5-11)	10 to 100
CC[C@H](C)[C@H](NC(=O)[C@@H](NC(=O)[C@H](Cc1c[nH]c2ccccc12)NC(=O)[C@H](CCSC)NC(C)=O)[C@@H](C)O)C(=O)N[C@H]1CSSC[C@@H](C(=O)N[C@@H](Cc2c[nH]c3ccccc23)C(=O)N2CCC[C@H]2C(N)=O)NC(=O)[C@H](CC(=O)O)NC(=O)[C@H](Cc2cnc[nH]2)NC(=O)[C@H](Cc2cn(C)c3ccccc23)NC(=O)[C@H](CC(N)=O)NC(=O)[C@H](CC(N)=O)NC1=O [compound 42, Ac-M-W-T-I-C(3)-N-N-(1Me-W)-H-D-C(3)-W-P-CONH2] (Ac-MWTICNN[Trp(1-Me)]HDCWP-NH2; disulfide 5-11)	10 to 100
CC[C@H](C)[C@H](NC(=O)[C@@H](NC(=O)[C@H](Cc1c[nH]c2ccccc12)NC(=O)[C@H](CCSC)NC(C)=O)[C@@H](C)O)C(=O)N[C@H]1CSSC[C@@H](C(=O)N[C@@H](Cc2cn(C)c3ccccc23)C(=O)N2CCC[C@H]2C(N)=O)NC(=O)[C@H](CC(=O)O)NC(=O)[C@H](Cc2c[nH]cn2)NC(=O)[C@H](Cc2c[nH]c3ccccc23)NC(=O)[C@H](CC(N)=O)NC(=O)[C@H](CC(N)=O)NC1=O [compound 43, Ac-M-W-T-I-C(3)-N-N-W-H-D-C(3)-(1Me-W)-P-CONH2] (Ac-MWTICNNWHDC[Trp(1-Me)]P-NH2; disulfide 5-11)	10 to 100
CSCC[C@H](NC(C)=O)C(=O)N[C@@H](Cc1c[nH]c2ccccc12)C(=O)N[C@H](C(=O)N[C@H](C(=O)N[C@H]1CSSC[C@@H](C(=O)N[C@@H](Cc2c[nH]c3ccccc23)C(=O)N2CCC[C@H]2C(N)=O)NC(=O)[C@H](CC(=O)O)NC(=O)[C@H](Cc2cnc[nH]2)NC(=O)[C@H](Cc2c[nH]c3ccccc23)NC(=O)[C@H](CC(N)=O)NC(=O)[C@H](CC(N)=O)NC1=O)C1CCCCC1)[C@@H](C)O [compound 44, Ac-M-W-T-(Chg)-C(3)-N-N-W-H-D-C(3)-W-P-CONH2] (Ac-MWT[Chg]CNNWHDCWP-NH2; disulfide 5-11)	1 to 10
CSCC[C@H](NC(C)=O)C(=O)N[C@@H](Cc1c[nH]c2ccccc12)C(=O)N[C@H](C(=O)N[C@@H](Cc1ccc2ccccc2c1)C(=O)N[C@H]1CSSC[C@@H](C(=O)N[C@@H](Cc2c[nH]c3ccccc23)C(=O)N2CCC[C@H]2C(N)=O)NC(=O)[C@H](CC(=O)O)NC(=O)[C@H](Cc2cnc[nH]2)NC(=O)[C@H](Cc2c[nH]c3ccccc23)NC(=O)[C@H](CC(N)=O)NC(=O)[C@H](CC(N)=O)NC1=O)[C@@H](C)O [compound 46, Ac-M-W-T-(2Nal)-C(3)-N-N-W-H-D-C(3)-W-P-CONH2] (Ac-MWT[2Nal]CNNWHDCWP-NH2; disulfide 5-11)	10 to 100
CC[C@H](C)[C@H](NC(=O)[C@@H](NC(=O)[C@H](Cc1c[nH]c2ccccc12)NC(C)=O)[C@@H](C)O)C(=O)N[C@H]1CSSC[C@@H](C(=O)N[C@@H](Cc2c[nH]c3ccccc23)C(=O)N2CCC[C@H]2C(N)=O)NC(=O)[C@H](CC(=O)O)NC(=O)[C@H](Cc2c[nH]cn2)NC(=O)[C@H](Cc2ccc(F)cc2)NC(=O)[C@H](CC(N)=O)NC(=O)[C@H](CC(N)=O)NC1=O [compound 49, Ac-W-T-I-C(3)-N-N-(4Fluoro-F)-H-D-C(3)-W-P-CONH2] (Ac-WTICNN[Phe(4-F)]HDCWP-NH2; disulfide 4-10)	1 to 10
CC[C@H](C)[C@H](NC(=O)[C@@H](NC(=O)[C@H](Cc1c[nH]c2ccccc12)NC(C)=O)[C@@H](C)O)C(=O)N[C@H]1CSSC[C@@H](C(=O)N[C@@H](Cc2c[nH]c3ccccc23)C(=O)N2CCC[C@H]2C(N)=O)NC(=O)[C@H](CC(=O)O)NC(=O)[C@H](Cc2c[nH]cn2)NC(=O)[C@H](Cc2ccc(C(F)(F)F)cc2)NC(=O)[C@H](CC(N)=O)NC(=O)[C@H](CC(N)=O)NC1=O [compound 50, Ac-W-T-I-C(3)-N-N-(4CF3-F)-H-D-C(3)-W-P-CONH2] (Ac-WTICNN[Phe(4-CF3)]HDCWP-NH2; disulfide 4-10)	1 to 10
